Here are results for 5 compounds from patent US9683014B2, “Dipeptide mimetics of NGF and BDNF neurotrophins” (UCHREZHDENIE ROSSIISKOI AKADEMII MEDITSYNSKIKH NAUK …, priority 2009, dated 2017).

For series [1], the system named is Balb/c mice. As to the kind of experiment: Behavioral despair test according to Porsolt. The series is classed as in vivo, mouse. The method, then: In order to detect a potential antidepressant activity of the peptide BDNF mimetics, the behavioral despair test was used in the original version (Porsolt R. D., Anton G., Blavet N., Jalfre M. Behavioral despair in rats: a new model sensitive to antidepressants. European Journal of Pharmacology, 1978, 47, 379-391).
For these experiments, male Balb/c mice weighing 20-22 g were used. On day 1, the animals were placed in a narrow vessel filled with water at 22° C. for 10 min. 60 min later a test compound was administered intraperitoneally (GSB-106 at 1 mg/kg, GBK-108 and GBK-201 at 0.01, 0.1, 1.0, 10.0 mg/kg). 24 hours later the animals were placed again in the same conditions to record the retention time of the characteristic immobile posture (abandoning any active defensive and exploratory behavior) for a 5 min test period. Imipramine was administered 60 min prior to the 5 min test period (on day 2). The control groups were treated with distilled water. Each experimental group comprised at least 6 mice.

Series [2] concerns HT-22 cells. As to the kind of experiment: Oxidative stress (H2O2) model in cultured HT-22 cells (MTT test). The series is classed as cell-based, mouse. The settings on record: added 24 hours prior to the stress exposure, 10^−8 M to 10^−5 M.
Experimental: To induce an oxidative stress, the cells were placed in a growth medium containing 5% FBS, then a freshly prepared H2O2 solution was added to a final concentration of 1.5 mM and incubated for 30 min at 37° C. and 5% CO2. Thereafter, the medium was replaced with a new one and the cells were cultured for 4 h under the same conditions.
The determination of cell viability was carried out by MTT test. […] At the end of an experiment the growth medium was replaced with an MTT solution (0.5 mg/ml) and incubated for 30 min at 37° C. and 5% CO2. The MTT solution was then removed from the wells and DMSO was added to dissolve the formazan precipitate. Then the optical density was measured using a Multiscan (Thermo) spectrophotometer at a wavelength of 600 nm.
The subject of series [3] is HT-22 neuronal cell line. As to the kind of experiment: Viability of HT-22 neuronal cell line without damaging factors (MTT test). It is filed as cell-based, mouse. Particulars: FIG. 1.1, different molar concentrations. The protocol:
The rat adrenal […] pheochromocytoma cell line PC12 was obtained from the Cell Culture Museum, RAN Institute of Molecular Genetics. The immortalized mouse hippocampal cell line HT-22 was a gift from Prof. F. Viegant, Utrecht University, the Netherlands.
The cells were grown in DMEM medium containing 5% FBS and 2 mM L-glutamine. The cells were incubated at 37° C. and 5% CO2. The growth medium was changed at 24 hours after inoculation and every 3 days thereafter. The cells were re-plated every week into culture flasks with a total area of 75 cm^2.
All types of cells were plated in DMEM medium.

Series [4] has as its system HT-22 cells. Particulars: added 24 hours prior to glutamate. The method, then:
The determination of cell viability was carried out by MTT test. MTT is a water soluble tetrazolium salt of yellow color which readily permeates cells. In living cells, MTT is converted into water insoluble formazan crystals of violet color. At the end of an experiment the growth medium was replaced with an MTT solution (0.5 mg/ml) and incubated for 30 min at 37° C. and 5% CO2. The MTT solution was then removed from the wells and DMSO was added to dissolve the formazan precipitate. Then the optical density was measured using a Multiscan (Thermo) spectrophotometer at a wavelength of 600 nm.

Peptide text beside a SMILES is read from it.

Take `CC(=O)N[C@@H](CC(=O)O)C(=O)N[C@@H](CO)C(N)=O` [GBK-108, N-acetyl-aspartyl-serine amide] (Ac-Asp-Ser-NH2): the immobility time entry in series [1] (GBK-108 at 10 mg/kg i.p., 24 h before the test) is reported as “increased the immobility time”. Further, the “neuronal survival under oxidative stress” value in series [2] is listed as “improved the neuronal survival”.
Take `CSCC[C@H](NC(=O)[C@H](CC(=O)O)NC(C)=O)C(N)=O` [GBK-201, N-acetyl-aspartyl-methionine amide] (Ac-Asp-Met-NH2): the immobility time result in series [1] (GBK-201 at 0.01 and 0.1 mg/kg i.p., 24 h before the test) is “increased the immobility time”.
With `NCCCC[C@H](NC(=O)[C@H](CCC(=O)O)NC(=O)CCC(=O)O)C(=O)NCCCCNC(=O)[C@H](CCCCN)NC(=O)[C@H](CCC(=O)O)NC(=O)CCC(=O)O` [GK-2c, bis-(N-monosuccinyl-glutamyl-lysine)tetramethylenediamide], the “viability of HT-22 cells” value in series [3] was “reduced the viability”.
As to `NCCCC[C@H](NC(=O)[C@H](CO)NC(=O)CCC(=O)O)C(=O)NCCCCCCNC(=O)[C@H](CCCCN)NC(=O)[C@H](CO)NC(=O)CCC(=O)O` [GSB-106, bis-(N-monosuccinyl-seryl-lysine) hexamethylenediamide], the “protective effect against glutamate cytotoxicity” value in series [4] is on record as “protective effect”. Further, in series [1] (GSB-106 1 mg/kg i.p., 24 h before the test), the immobility time entry was “reducing the immobility time”. Moreover, the “neuronal survival under oxidative stress” value in series [2] is “improved the neuronal survival”.
Consider `CN(C)CCCN1c2ccccc2CCc2ccccc21` [imipramine, Imipramine, reference compound], for which, in series [1] (imipramine 60 min prior to the 5 min test), the immobility time result is “reducing the immobility time”.
